Results taken from patent publication US12435081B2, “Methods of treatment using BCN057 and BCN512” (BCN Biosciences L.L.C., priority 2019, dated 2025).

Experiments:
Panc-1 cells = experiment: RealTime-Glo Annexin V Apoptosis and Necrosis Assay; assay type: cell-based
Method: FIGS. 2A and 2B depict the Annexin V Apoptosis and Necrosis Assay in Panc-1 cells. Panc-1 cells were exposed to serial dilutions of 057 in the presence or absence of the RealTime-Glo™ Annexin V Apoptosis and Necrosis Assay Reagent. The plate was incubated at 37° C./5% CO2 and luminescence (Annexin V binding) was measured over a period of 6 hours.

[1] = tested on: pancreatic cancer cell lines; experiment: ATP Lite viability assay of pancreatic cancer cell lines; assay type: cell-based
Method: FIG. 1 depicts the Effects of 5-FU and BCN057 on the viability of pancreatic cancer cell lines. The Effects of 5-FU and BCN057 on the viability of pancreatic cancer cell lines were assessed by ATP Lite assay (Perkin Elmer). 50 uM 5Fu (5Fu, n=5), 50 uM 5Fu and 2, 5, 10, and 20 uM BCN057 (5Fu+BCN057, n=5) or 2, 5, 10.20 uM CN057 (CN057, n=5). Control cells (V, n=5) The Percent Phosphorylation was calculated by dividing the average value for each condition by the average value of the control cells (V) at each time point.
FIGS. 4A and 4B show Compound H, Compound K and the results of a Viability Assay on Pancreatic Cells. […] The numeric data is also included (FIG. 4B). FIG. 5A depicts Compound H and FIG. 5B depicts Compound K.

[2] = Solubility in aqueous formulations; assay type: physicochemical; details: 30 wt % Captisol (SBE-beta-CD) and 100 mM MSA, at up to pH 4.1 or higher
[3] = tested on: pancreatic cancer cell lines; experiment: Imaging of pancreatic cancer cell lines over time; assay type: cell-based; details: 10 uM, time 0 to 240 minutes
Method: FIG. 3 depicts the Effects of 10 uM BCN057 on the viability of pancreatic cancer cell lines. The images show pancreatic cancer cell lines at time 0 (FIG. 3A), 15 minutes (FIG. 3B), 30 minutes (FIG. 3C), 60 minutes (FIG. 3D), 120 minutes (FIG. 3E) and 240 minutes (FIG. 3F).

[4] = tested on: HEK293 cells having a TCF/LEF luciferase reporter construct; experiment: TCF/LEF luciferase reporter assay of canonical WNT activity; assay type: cell-based; details: after 24 hours, compared with vehicle treated cells
Method: These studies and observations are consistent with previous observations, specifically that WNT-catenin signaling promotes the self-renewal and differentiation of LGR5+ epithelial (lung, oral, intestinal) stem cells. Canonical WNT activity was measured in HEK293 cells having a TCF/LEF luciferase reporter construct. Luciferase activity was measured after 24 hours.

TGFβ = experiment: Histopathology of lung and cardiac muscle sections stained for TGFβ after thoracic radiation; assay type: in vivo, C57M Male mice
Method: Transforming growth factor β (TGF-β) is a central mediator of fibrogenesis. […] TGFβ is reduced when treated for the first 20 days post radiation with BCN512 at 5 mg/kg. Images D-F are cardiac muscle stains under the identical parameters above from the same animals. […] We expect the same results using non-radiation induced stimuli including LPS and cytotoxic drugs.

Wnt activity [5] = experiment: TOPFLASH assay of exosomes purified from human lung organoid conditioned medium; assay type: cell-based; details: human lung organoids irradiated (4-6 Gy), treated with BCN512, compared to irradiated control
Method: For the role of BCN512 in human pulmonary epithelium derived Wnt release, exosome were purified from organoid conditioned medium. Purified exosomes were tested for Wnt activity by TOPFLASH assay.

lung fibrosis = experiment: Fibrotic lesions in lung sections; assay type: in vivo; details: BCN512 treated (20×512) vs. vehicle (20×V), C57BL mice, day 180, five mice per group
Excerpt: Lesions were defined by local density with five mice per group assessed at day 180. This effect is observed with non-radiation induced stimuli such as LPS and cytotoxic drugs.

Wnt activity [6] = experiment: TOPFLASH assay of exosomes purified from lung organoid conditioned medium; assay type: cell-based, mice; details: irradiated organoids treated with BCN512 compared to irradiated control
Method: If BCN512 and related structures inhibit the activity of SRFPs, BCN512 can allow more free Wnt ligand from epithelial cells. Free Wnt ligands are secreted and transported through exosomes. To determine the role of BCN512 in pulmonary epithelium derived Wnt release, exosomes were purified from organoid conditioned medium. Purified exosomes were tested for Wnt activity by the TOPFLASH assay.
Wnt activity has also been examined in exosomes derived from human lung organoids.

Compound | fluorescence (necrosis) (Panc-1 cells; over the same 6 hour period) | apoptosis (luminescence, Annexin V binding) (Panc-1 cells; serial dilutions, measured over 6 hours) | antineoplastic activity / proliferation of the tumor cell line [1] | solubility [2] | morphological changes and apoptosis [3] | luciferase activity [4] | TGFβ staining in lung sections (TGFβ; 14Gy thoracic radiation, 5 mg/kg for the first 20 days post radiation, assessed on day 90) | TGFβ staining with non-radiation induced stimuli (TGFβ; non-radiation induced stimuli including LPS and cytotoxic drugs) | TGFβ staining in cardiac muscle (TGFβ; same animals and parameters: 14Gy thoracic radiation, 5 mg/kg for first 20 days, day 90) | exosomal Wnt activity (Wnt activity [5]) | lung fibrosis (number of fibrotic lesions in lung sections) (lung fibrosis) | exosomal Wnt activity (Wnt activity [6])
COc1ccc2cc(-c3nc4ccc(C)cn4c3NCc3ccco3)c(=O)[nH]c2c1 [BCN057, (3-[(Furan-2-ylmethyl)-amino]-2-(7-methoxy-2-oxo-1,2-dihydro-quinolin-3-yl)-6-methyl-imidazo[1,2-a]pyridin-1-ium)] | No change | increase with increasing concentrations | inhibits the proliferation of the tumor cell line | excellent solubility | particularly apparent at 240 minutes |  |  |  |  |  |  | 
O=[N+]([O-])c1ccc([S@SP3](=O)(=O)N2CCN(c3ccccc3)CC2)cc1 [BCN512, 1-[(4-nitrobenezene)sulfonyl]-4-phenyl piperazine] |  |  |  |  |  | significantly increased | reduced | same results | significant reduction | several folds high | significant reduction | several folds higher
